Assays:
[1] = system: control sera (pooled serum of ten healthy LUMC hospital workers; commercial negative donor pooled serum from the Dutch bloodbank); format: binding, human; design: Binding of Control serum LUMC to linear peptides / Binding of Control serum Blood-bank to linear peptides / Binding of Control serum LUMC to looped peptides / Binding of Control Serum Blood-Bank to Looped peptides / Binding of Control serum LUMC to linear peptides of the protein M of SARS-CoV Urbani / Binding of Control serum Blood-bank to linear peptides of the protein M of SARS-CoV Urbani / Binding of Control serum LUMC to looped peptides of the protein M of SARS-CoV Urbani / Binding of Control Serum Blood-Bank to Looped peptides of the protein M of SARS-CoV Urbani: unit not given here
[2] = system: rabbit serum obtained by immunizing a rabbit with the SARS-CoV strain Frankfurt 1; format: binding; design: Binding of a rabbit serum to linear peptides / Binding of a rabbit serum to looped peptides / Rabbit serum linear peptides / Rabbit serum looped peptides / Binding of a rabbit serum to linear peptides of protein N of SARS-CoV Urbani (Rabbit serum linear peptides) / Binding of a rabbit serum to looped/cyclic peptides of protein N of SARS-CoV Urbani (Rabbit serum looped peptides): unit not given here
[3] = system: antibodies in sera from SARS patients (sera 1a, 1b, 2, 6, 37, 62, London, SARS-yellow, SARS-green); format: binding, human; design: Binding of serum 6 to linear peptides of protein X1 of SARS-CoV Urbani / Binding of serum 37 to linear peptides of protein X1 of SARS-CoV Urbani / Binding of serum 6 to looped/cyclic peptide (PEPSCAN-ELISA) / Binding of serum 37 to looped/cyclic peptide (PEPSCAN-ELISA) / Binding of serum 37 to looped/cyclic peptides of protein X1 of SARS-CoV Urbani / Binding of serum 6 to linear peptides of protein X2 / Binding of serum 37 to linear peptides of protein X2 / Binding of serum 37 to looped/cyclic peptides of protein X2 of SARS-CoV Urbani / Binding of serum 6 to linear peptides of protein M of SARS-CoV Urbani / Binding of serum 37 to linear peptides of protein M of SARS-CoV Urbani / Binding of serum 6 to looped/cyclic peptides of protein M of SARS-CoV Urbani / Binding of serum 37 to looped/cyclic peptides of protein M of SARS-CoV Urbani / Binding of serum 6 to linear peptides of protein X3 of SARS-CoV Urbani / Binding of serum 37 to linear peptides of protein X3 of SARS-CoV Urbani / Binding of serum 37 to looped/cyclic peptides of protein X3 of SARS-CoV Urbani / Binding of serum 6 to linear peptides of protein X4 of SARS-CoV Urbani / Binding of serum 37 to linear peptides of protein X4 of SARS-CoV Urbani / Binding of serum 37 to looped/cyclic peptides of protein X4 of SARS-CoV Urbani / Binding of serum 6 to linear peptides of protein X5 of SARS-CoV Urbani / Binding of serum 37 to linear peptides of protein X5 of SARS-CoV Urbani / Binding of serum 37 to looped/cyclic peptides of protein X5 of SARS-CoV Urbani / Binding of serum 6 to linear peptides of protein N of SARS-CoV Urbani / Binding of serum 37 to linear peptides of protein N of SARS-CoV Urbani / Binding of serum 6 to linear peptide (PEPSCAN-ELISA) / Binding of serum 1a to looped/cyclic peptides of protein N of SARS-CoV Urbani / Binding of serum 1b to looped/cyclic peptides of protein N of SARS-CoV Urbani / Binding of serum 2 to looped/cyclic peptides of protein N of SARS-CoV Urbani / Binding of serum 6 to looped/cyclic peptides of protein N of SARS-CoV Urbani / Binding of serum 37 to looped/cyclic peptides of protein N of SARS-CoV Urbani / Binding of serum 62 to looped/cyclic peptides of protein N of SARS-CoV Urbani / Binding of serum London to looped/cyclic peptides of protein N of SARS-CoV Urbani / Binding of serum SARS-green to looped/cyclic peptides of protein N of SARS-CoV Urbani: unit not given here

LHKLLQTLVLKMLHS
1.0: Binding of serum London to looped/cyclic peptides of protein X2 of SARS-CoV Urbani [3]
0.6: Binding of serum 1a to linear peptides of protein X2 [3] | Binding of serum 1a to looped/cyclic peptides of protein X2 of SARS-CoV Urbani [3] | Binding of serum 6 to looped/cyclic peptides of protein X2 of SARS-CoV Urbani [3] | Binding of serum 62 to looped/cyclic peptides of protein X2 of SARS-CoV Urbani [3] | Binding of serum SARS-green to linear peptides of protein X2 [3]
0.3: Binding of Control serum LUMC to linear peptides [1] | Binding of serum 6 to linear peptides of protein X2 [3] | Binding of serum SARS-yellow to linear peptides of protein X2 [3]
0.7: Binding of Control serum LUMC to looped peptides [1] | Binding of serum SARS-yellow to looped/cyclic peptides of protein X2 of SARS-CoV Urbani [3]
0.4: Binding of a rabbit serum to looped peptides [2] | Binding of serum 2 to linear peptides of protein X2 [3] | Binding of serum 2 to looped/cyclic peptides of protein X2 of SARS-CoV Urbani [3] | Binding of serum 37 to linear peptides of protein X2 [3] | Binding of serum 37 to looped/cyclic peptides of protein X2 of SARS-CoV Urbani [3] | Binding of serum London to linear peptides of protein X2 [3] | Binding of serum SARS-green to looped/cyclic peptides of protein X2 of SARS-CoV Urbani [3]
0.5: Binding of Control serum Blood-bank to linear peptides [1] | Binding of serum 1b to looped/cyclic peptides of protein X2 of SARS-CoV Urbani [3] | Binding of serum 62 to linear peptides of protein X2 [3]
0.8: Binding of Control Serum Blood-Bank to Looped peptides [1]
0.0: Binding of serum 1b to linear peptides of protein X2 [3]
0.2: Binding of a rabbit serum to linear peptides [2]

LHSSSLTSLLKTHRM
0.3: Binding of serum 2 to looped/cyclic peptides of protein X2 of SARS-CoV Urbani [3] | Binding of serum 37 to looped/cyclic peptides of protein X2 of SARS-CoV Urbani [3] | Binding of serum SARS-green to looped/cyclic peptides of protein X2 of SARS-CoV Urbani [3] | Binding of serum SARS-yellow to looped/cyclic peptides of protein X2 of SARS-CoV Urbani [3]
0.2: Binding of a rabbit serum to linear peptides [2] | Binding of serum 6 to looped/cyclic peptides of protein X2 of SARS-CoV Urbani [3] | Binding of serum London to looped/cyclic peptides of protein X2 of SARS-CoV Urbani [3]
0.7: Binding of Control serum Blood-bank to linear peptides [1]
0.4: Binding of Control Serum Blood-Bank to Looped peptides [1] | Binding of Control serum LUMC to linear peptides [1] | Binding of Control serum LUMC to looped peptides [1] | Binding of a rabbit serum to looped peptides [2] | Binding of serum 1a to looped/cyclic peptides of protein X2 of SARS-CoV Urbani [3] | Binding of serum 1b to looped/cyclic peptides of protein X2 of SARS-CoV Urbani [3] | Binding of serum 2 to linear peptides of protein X2 [3] | Binding of serum 62 to looped/cyclic peptides of protein X2 of SARS-CoV Urbani [3]
0.5: Binding of serum 1b to linear peptides of protein X2 [3] | Binding of serum 6 to linear peptides of protein X2 [3] | Binding of serum 37 to linear peptides of protein X2 [3] | Binding of serum 62 to linear peptides of protein X2 [3]
0.6: Binding of serum 1a to linear peptides of protein X2 [3] | Binding of serum London to linear peptides of protein X2 [3] | Binding of serum SARS-green to linear peptides of protein X2 [3] | Binding of serum SARS-yellow to linear peptides of protein X2 [3]

LIVFTSCELYHYQEC
0.5: Rabbit serum linear peptides [2] | Rabbit serum looped peptides [2] | Binding of serum 6 to looped/cyclic peptides of protein X4 of SARS-CoV Urbani [3] | Binding of serum SARS-green to looped/cyclic peptides of protein X4 of SARS-CoV Urbani [3]
0.8: Binding of Control serum LUMC to looped peptides [1] | Binding of serum 1a to linear peptides of protein X4 of SARS-CoV Urbani [3] | Binding of serum 1a to looped/cyclic peptides of protein X4 of SARS-CoV Urbani [3] | Binding of serum 1b to linear peptides of protein X4 of SARS-CoV Urbani [3] | Binding of serum London to linear peptides of protein X4 of SARS-CoV Urbani [3]
0.7: Binding of Control Serum Blood-Bank to Looped peptides [1] | Binding of Control serum LUMC to linear peptides [1] | Binding of serum 37 to looped/cyclic peptides of protein X4 of SARS-CoV Urbani [3] | Binding of serum 62 to looped/cyclic peptides of protein X4 of SARS-CoV Urbani [3]
1.0: Binding of serum 37 to linear peptides of protein X4 of SARS-CoV Urbani [3] | Binding of serum 62 to linear peptides of protein X4 of SARS-CoV Urbani [3]
0.6: Binding of Control serum Blood-bank to linear peptides [1] | Binding of serum 1b to looped/cyclic peptides of protein X4 of SARS-CoV Urbani [3] | Binding of serum 2 to linear peptides of protein X4 of SARS-CoV Urbani [3] | Binding of serum 2 to looped/cyclic peptides of protein X4 of SARS-CoV Urbani [3] | Binding of serum 6 to linear peptides of protein X4 of SARS-CoV Urbani [3] | Binding of serum SARS-yellow to linear peptides of protein X4 of SARS-CoV Urbani [3] | Binding of serum SARS-yellow to looped/cyclic peptides of protein X4 of SARS-CoV Urbani [3]
1.1: Binding of serum SARS-green to linear peptides of protein X4 of SARS-CoV Urbani [3]
0.3: Binding of serum London to looped/cyclic peptides of protein X4 of SARS-CoV Urbani [3]

LIYFLQCINACRIIM
0.7: Binding of Control serum LUMC to looped peptides [1] | Binding of serum 1a to linear peptides of protein X1 of SARS-CoV Urbani [3] | Binding of serum 2 to looped/cyclic peptide (PEPSCAN-ELISA) [3]
0.9: Binding of Control Serum Blood-Bank to Looped peptides [1]
0.5: Binding of serum 6 to linear peptides of protein X1 of SARS-CoV Urbani [3]
0.1: Binding of a rabbit serum to linear peptides [2]
1.2: Binding of serum 6 to looped/cyclic peptide (PEPSCAN-ELISA) [3]
0.6: Binding of Control serum Blood-bank to linear peptides [1] | Binding of Control serum LUMC to linear peptides [1] | Binding of serum 1b to linear peptides of protein X1 of SARS-CoV Urbani [3] | Binding of serum 2 to linear peptides of protein X1 of SARS-CoV Urbani [3] | Binding of serum 37 to linear peptides of protein X1 of SARS-CoV Urbani [3] | Binding of serum 62 to linear peptides of protein X1 of SARS-CoV Urbani [3] | Binding of serum SARS-green to looped/cyclic peptide (PEPSCAN-ELISA) [3] | Binding of serum SARS-yellow to looped/cyclic peptide (PEPSCAN-ELISA) [3]
0.4: Binding of serum 1b to looped/cyclic peptide (PEPSCAN-ELISA) [3] | Binding of serum 62 to looped/cyclic peptide (PEPSCAN-ELISA) [3] | Binding of serum SARS-yellow to linear peptides of protein X1 of SARS-CoV Urbani [3]
0.3: Binding of a rabbit serum to looped peptides [2] | Binding of serum London to linear peptides of protein X1 of SARS-CoV Urbani [3]
0.2: Binding of serum 1a to looped/cyclic peptide (PEPSCAN-ELISA) [3] | Binding of serum 37 to looped/cyclic peptide (PEPSCAN-ELISA) [3] | Binding of serum SARS-green to linear peptides of protein X1 of SARS-CoV Urbani [3]
1.1: Binding of serum London to looped/cyclic peptide (PEPSCAN-ELISA) [3]

LKEPCPSGTYEGNSP
0.0: Rabbit serum looped peptides [2]
0.2: Binding of serum SARS-yellow to linear peptides of protein X4 of SARS-CoV Urbani [3] | Binding of serum SARS-yellow to looped/cyclic peptides of protein X4 of SARS-CoV Urbani [3]
0.4: Rabbit serum linear peptides [2] | Binding of serum 1b to linear peptides of protein X4 of SARS-CoV Urbani [3] | Binding of serum 2 to linear peptides of protein X4 of SARS-CoV Urbani [3]
0.5: Binding of Control Serum Blood-Bank to Looped peptides [1] | Binding of serum 1b to looped/cyclic peptides of protein X4 of SARS-CoV Urbani [3] | Binding of serum 2 to looped/cyclic peptides of protein X4 of SARS-CoV Urbani [3] | Binding of serum 37 to looped/cyclic peptides of protein X4 of SARS-CoV Urbani [3] | Binding of serum SARS-green to linear peptides of protein X4 of SARS-CoV Urbani [3]
0.3: Binding of Control serum LUMC to linear peptides [1] | Binding of serum 6 to linear peptides of protein X4 of SARS-CoV Urbani [3] | Binding of serum 6 to looped/cyclic peptides of protein X4 of SARS-CoV Urbani [3] | Binding of serum London to looped/cyclic peptides of protein X4 of SARS-CoV Urbani [3]
0.7: Binding of Control serum LUMC to looped peptides [1] | Binding of serum 1a to linear peptides of protein X4 of SARS-CoV Urbani [3] | Binding of serum 62 to linear peptides of protein X4 of SARS-CoV Urbani [3]
0.9: Binding of serum London to linear peptides of protein X4 of SARS-CoV Urbani [3]
0.6: Binding of Control serum Blood-bank to linear peptides [1] | Binding of serum 1a to looped/cyclic peptides of protein X4 of SARS-CoV Urbani [3] | Binding of serum 37 to linear peptides of protein X4 of SARS-CoV Urbani [3] | Binding of serum 62 to looped/cyclic peptides of protein X4 of SARS-CoV Urbani [3] | Binding of serum SARS-green to looped/cyclic peptides of protein X4 of SARS-CoV Urbani [3]

Source: US20070128217A1 (priority 2003, published 2007)
